Activity calls are given as the source filed them.
Key:
[1] = inhibitors of intracellular T. cruzi replication, confirmation, NIH3T3 host cells, beta-gal luminescence (AID 2044); format: functional, cell-based;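 note: intracellular parasites grown in NIH/3T3 mouse fibroblasts as host cells; luminescent beta-galactosidase reporter signal from transgenic T. cruzi replicating inside host cells; inhibitors lower the luminescence signal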
Hexokinase HKDC1 = target: T1, Hexokinase HKDC1 (Homo sapiens, UniProt Q2TB90); experiment: HKDC1 hexokinase activators, dose response, biochemical, W721R variant (AID 504730); format: functional
T1 sequence (Q2TB90 whole entry): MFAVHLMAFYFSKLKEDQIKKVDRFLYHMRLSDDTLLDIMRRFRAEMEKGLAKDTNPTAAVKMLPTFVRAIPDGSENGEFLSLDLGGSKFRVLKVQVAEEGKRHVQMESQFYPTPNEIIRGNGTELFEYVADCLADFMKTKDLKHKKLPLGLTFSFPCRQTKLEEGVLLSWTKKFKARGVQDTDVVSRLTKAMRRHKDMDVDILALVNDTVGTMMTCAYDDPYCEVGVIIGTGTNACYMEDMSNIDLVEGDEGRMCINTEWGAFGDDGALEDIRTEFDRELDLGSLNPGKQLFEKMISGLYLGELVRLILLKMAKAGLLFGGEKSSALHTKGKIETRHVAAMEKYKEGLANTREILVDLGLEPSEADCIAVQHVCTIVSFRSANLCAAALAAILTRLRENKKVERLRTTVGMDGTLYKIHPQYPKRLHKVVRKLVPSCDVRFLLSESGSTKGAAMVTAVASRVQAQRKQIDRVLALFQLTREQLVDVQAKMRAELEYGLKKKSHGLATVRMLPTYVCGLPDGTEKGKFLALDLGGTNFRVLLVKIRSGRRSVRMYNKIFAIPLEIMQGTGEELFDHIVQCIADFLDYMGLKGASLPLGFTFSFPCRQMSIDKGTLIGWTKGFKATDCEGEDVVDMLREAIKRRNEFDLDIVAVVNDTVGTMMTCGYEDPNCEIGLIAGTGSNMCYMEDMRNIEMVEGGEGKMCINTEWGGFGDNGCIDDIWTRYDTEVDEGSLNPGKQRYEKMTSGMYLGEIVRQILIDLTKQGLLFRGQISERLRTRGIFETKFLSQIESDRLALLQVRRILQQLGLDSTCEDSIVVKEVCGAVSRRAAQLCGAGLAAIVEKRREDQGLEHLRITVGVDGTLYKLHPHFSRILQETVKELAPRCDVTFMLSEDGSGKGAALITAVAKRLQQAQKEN

Hexokinase-1 = target: T2, Hexokinase-1 (Homo sapiens, UniProt P19367); experiment: hexokinase 1 activators, dose response, selectivity assay for HKDC1 activator project, biochemical (AID 504762); format: functional
T2 sequence (P19367 whole entry): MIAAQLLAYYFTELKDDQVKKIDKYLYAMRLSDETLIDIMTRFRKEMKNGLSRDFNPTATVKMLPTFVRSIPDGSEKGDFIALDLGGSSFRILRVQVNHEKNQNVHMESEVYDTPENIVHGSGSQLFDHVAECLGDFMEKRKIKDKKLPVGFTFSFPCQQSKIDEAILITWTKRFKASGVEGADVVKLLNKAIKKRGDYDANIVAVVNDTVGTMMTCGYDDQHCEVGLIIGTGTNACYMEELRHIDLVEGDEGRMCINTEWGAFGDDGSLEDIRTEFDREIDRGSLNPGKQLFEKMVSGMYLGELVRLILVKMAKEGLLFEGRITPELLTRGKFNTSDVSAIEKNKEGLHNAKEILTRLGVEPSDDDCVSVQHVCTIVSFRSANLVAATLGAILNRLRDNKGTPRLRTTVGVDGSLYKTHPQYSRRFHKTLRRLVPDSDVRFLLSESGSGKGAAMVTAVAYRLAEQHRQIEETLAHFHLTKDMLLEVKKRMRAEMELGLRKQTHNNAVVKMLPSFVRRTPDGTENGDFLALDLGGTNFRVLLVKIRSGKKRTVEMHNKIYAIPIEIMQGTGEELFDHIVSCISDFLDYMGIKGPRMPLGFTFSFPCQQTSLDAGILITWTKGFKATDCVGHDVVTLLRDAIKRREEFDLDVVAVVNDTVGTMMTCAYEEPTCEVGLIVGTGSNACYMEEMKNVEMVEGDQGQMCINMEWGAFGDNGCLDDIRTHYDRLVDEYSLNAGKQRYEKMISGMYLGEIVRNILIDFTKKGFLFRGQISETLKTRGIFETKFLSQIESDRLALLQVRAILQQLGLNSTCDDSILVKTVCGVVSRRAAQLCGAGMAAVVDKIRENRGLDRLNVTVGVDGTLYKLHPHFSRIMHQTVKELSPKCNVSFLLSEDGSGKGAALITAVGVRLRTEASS

[2] = Shn3 3'UTR reporter inhibitors, dose response, cell-based, Clone20 osteoblasts, firefly luciferase, cherry-picked (AID 624132); format: functional;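 note: firefly luciferase luminescence from reporter carrying the Shn3 3'UTR in osteoblasts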
[3] = inhibitors of HIV Env-driven cell fusion, dose response, cherry-pick (AID 652057); format: functional, cell-based
[4] = ZM109 Env clade C HIV-1 fusion inhibitors, dose response, HeLa effector, CEM target cells, luciferase, cherry-pick (AID 652058); format: functional, cell-based
[5] = target: Proto-oncogene tyrosine-protein kinase receptor Ret (Homo sapiens, UniProt P07949); format: functional;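 note: measured within a kinome-wide profiling panel, RET as the panel member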
[6] = target: Tyrosine-protein kinase SYK (Homo sapiens, UniProt P43405); format: functional
[7] = target: Serine/threonine-protein kinase 17A (Homo sapiens, UniProt Q9UEE5); format: functional
[8] = target: Protein-tyrosine kinase 6 (Homo sapiens, UniProt Q13882); format: functional
Beta-galactosidase = Beta-galactosidase (Escherichia coli, UniProt Q8VNN2); format: functional
[9] = target: C-C chemokine receptor type 6 (Homo sapiens, UniProt P51684); experiment: CCR6 receptor antagonists, dose response, cell-based, luminescent beta-arrestin readout (AID 504728); format: functional
Nonstructural protein 1 = Nonstructural protein 1 (Influenza A virus, UniProt Q194T2); format: functional, Influenza A virus (A/California/07/2009(H1N1))
[10] = target: Serine/threonine-protein kinase TBK1 (Homo sapiens, UniProt Q9UHD2); experiment: Navigating the Kinome. Panel member name: TBK1; format: functional
[11] = target: Casein kinase I isoform delta (Homo sapiens, UniProt P48730); format: functional;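 note: measured as one member (CSNK1D) of a kinome panel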
Casein kinase I isoform delta, sequence (P48730 whole entry, canonical isoform): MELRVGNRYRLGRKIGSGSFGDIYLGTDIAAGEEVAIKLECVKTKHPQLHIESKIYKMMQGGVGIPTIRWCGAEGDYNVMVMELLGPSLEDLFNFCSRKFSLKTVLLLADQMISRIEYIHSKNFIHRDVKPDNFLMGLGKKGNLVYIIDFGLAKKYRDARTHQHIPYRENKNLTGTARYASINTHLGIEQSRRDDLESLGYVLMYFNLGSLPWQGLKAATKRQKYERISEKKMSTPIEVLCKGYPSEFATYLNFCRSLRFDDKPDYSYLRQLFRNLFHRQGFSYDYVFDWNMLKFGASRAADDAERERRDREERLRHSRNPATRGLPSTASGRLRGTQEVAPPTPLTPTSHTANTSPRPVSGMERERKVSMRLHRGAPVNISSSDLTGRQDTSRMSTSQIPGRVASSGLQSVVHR

Serine/threonine-protein kinase 17A, sequence (Q9UEE5 whole entry): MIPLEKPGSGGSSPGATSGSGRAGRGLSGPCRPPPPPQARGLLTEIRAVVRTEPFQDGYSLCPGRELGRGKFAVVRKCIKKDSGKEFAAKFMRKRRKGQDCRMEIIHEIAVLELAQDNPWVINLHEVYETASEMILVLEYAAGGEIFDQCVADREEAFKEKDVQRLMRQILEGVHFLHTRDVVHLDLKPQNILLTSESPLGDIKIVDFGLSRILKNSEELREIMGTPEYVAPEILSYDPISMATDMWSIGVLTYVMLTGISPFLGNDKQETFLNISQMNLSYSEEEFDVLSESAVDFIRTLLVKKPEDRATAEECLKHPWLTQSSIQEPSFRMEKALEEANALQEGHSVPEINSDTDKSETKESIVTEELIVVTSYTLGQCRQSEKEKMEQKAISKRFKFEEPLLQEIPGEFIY
Protein-tyrosine kinase 6, sequence (Q13882 whole entry): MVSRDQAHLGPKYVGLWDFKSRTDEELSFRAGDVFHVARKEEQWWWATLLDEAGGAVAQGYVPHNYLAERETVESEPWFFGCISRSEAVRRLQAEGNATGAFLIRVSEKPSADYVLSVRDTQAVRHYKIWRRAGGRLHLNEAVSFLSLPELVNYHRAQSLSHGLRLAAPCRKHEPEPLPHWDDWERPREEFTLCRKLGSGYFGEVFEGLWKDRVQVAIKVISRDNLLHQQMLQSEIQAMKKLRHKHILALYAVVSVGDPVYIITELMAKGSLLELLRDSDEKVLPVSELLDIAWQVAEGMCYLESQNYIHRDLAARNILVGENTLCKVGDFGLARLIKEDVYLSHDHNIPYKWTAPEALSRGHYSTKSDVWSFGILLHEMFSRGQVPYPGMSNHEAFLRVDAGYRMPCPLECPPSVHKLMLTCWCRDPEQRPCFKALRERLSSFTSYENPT
Nonstructural protein 1, sequence (Q194T2 whole entry): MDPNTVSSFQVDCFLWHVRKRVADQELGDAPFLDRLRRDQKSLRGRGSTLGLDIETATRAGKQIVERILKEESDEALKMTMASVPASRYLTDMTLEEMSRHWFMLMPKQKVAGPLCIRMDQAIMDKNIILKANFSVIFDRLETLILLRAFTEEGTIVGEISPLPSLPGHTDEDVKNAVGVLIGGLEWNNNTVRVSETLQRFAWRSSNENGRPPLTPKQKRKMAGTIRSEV
Serine/threonine-protein kinase TBK1, sequence (Q9UHD2 whole entry, canonical isoform): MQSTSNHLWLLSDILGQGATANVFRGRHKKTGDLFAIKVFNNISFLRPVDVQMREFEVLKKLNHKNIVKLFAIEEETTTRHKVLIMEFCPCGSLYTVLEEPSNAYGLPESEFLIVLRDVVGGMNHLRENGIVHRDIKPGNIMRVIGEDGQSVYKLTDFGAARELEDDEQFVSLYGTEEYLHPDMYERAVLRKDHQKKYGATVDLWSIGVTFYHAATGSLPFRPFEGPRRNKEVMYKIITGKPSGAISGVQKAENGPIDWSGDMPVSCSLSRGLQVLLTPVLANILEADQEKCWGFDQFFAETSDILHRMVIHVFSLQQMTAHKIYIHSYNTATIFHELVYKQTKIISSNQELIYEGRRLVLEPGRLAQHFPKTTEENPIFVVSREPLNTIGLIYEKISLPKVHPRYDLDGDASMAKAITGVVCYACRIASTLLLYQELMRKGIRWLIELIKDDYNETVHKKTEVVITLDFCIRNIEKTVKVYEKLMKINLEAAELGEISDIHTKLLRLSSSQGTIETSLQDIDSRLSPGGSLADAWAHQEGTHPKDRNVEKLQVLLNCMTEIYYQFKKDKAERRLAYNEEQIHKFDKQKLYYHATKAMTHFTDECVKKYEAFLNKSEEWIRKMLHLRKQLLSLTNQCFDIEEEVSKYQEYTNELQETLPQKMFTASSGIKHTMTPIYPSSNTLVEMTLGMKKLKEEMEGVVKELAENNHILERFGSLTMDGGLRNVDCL
Beta-galactosidase, sequence (Q8VNN2 whole entry): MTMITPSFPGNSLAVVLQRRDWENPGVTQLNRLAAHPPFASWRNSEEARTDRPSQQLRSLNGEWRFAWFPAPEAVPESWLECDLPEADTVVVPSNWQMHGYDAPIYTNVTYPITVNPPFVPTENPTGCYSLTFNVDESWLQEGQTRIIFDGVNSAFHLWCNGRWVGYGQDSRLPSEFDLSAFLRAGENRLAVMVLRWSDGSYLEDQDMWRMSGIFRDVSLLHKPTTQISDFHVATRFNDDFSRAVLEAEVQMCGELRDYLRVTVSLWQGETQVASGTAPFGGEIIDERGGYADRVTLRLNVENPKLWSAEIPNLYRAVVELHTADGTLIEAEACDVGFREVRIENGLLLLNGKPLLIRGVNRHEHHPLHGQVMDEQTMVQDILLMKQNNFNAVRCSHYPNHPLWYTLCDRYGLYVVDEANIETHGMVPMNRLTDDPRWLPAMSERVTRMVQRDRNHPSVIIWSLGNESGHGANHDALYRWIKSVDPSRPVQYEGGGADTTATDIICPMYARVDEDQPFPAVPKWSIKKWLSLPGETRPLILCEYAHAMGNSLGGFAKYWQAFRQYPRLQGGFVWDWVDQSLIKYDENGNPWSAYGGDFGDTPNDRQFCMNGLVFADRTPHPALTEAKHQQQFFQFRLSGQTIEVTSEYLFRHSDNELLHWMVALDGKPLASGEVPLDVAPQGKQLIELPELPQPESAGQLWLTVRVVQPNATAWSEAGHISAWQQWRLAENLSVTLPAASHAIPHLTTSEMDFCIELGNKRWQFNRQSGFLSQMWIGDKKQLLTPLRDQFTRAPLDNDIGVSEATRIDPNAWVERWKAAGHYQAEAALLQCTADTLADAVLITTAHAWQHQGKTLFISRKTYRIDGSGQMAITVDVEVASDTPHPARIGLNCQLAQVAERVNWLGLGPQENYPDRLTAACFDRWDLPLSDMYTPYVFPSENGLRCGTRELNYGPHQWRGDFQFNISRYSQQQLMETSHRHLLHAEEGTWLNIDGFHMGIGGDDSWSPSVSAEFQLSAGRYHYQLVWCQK
Proto-oncogene tyrosine-protein kinase receptor Ret, sequence (P07949 whole entry): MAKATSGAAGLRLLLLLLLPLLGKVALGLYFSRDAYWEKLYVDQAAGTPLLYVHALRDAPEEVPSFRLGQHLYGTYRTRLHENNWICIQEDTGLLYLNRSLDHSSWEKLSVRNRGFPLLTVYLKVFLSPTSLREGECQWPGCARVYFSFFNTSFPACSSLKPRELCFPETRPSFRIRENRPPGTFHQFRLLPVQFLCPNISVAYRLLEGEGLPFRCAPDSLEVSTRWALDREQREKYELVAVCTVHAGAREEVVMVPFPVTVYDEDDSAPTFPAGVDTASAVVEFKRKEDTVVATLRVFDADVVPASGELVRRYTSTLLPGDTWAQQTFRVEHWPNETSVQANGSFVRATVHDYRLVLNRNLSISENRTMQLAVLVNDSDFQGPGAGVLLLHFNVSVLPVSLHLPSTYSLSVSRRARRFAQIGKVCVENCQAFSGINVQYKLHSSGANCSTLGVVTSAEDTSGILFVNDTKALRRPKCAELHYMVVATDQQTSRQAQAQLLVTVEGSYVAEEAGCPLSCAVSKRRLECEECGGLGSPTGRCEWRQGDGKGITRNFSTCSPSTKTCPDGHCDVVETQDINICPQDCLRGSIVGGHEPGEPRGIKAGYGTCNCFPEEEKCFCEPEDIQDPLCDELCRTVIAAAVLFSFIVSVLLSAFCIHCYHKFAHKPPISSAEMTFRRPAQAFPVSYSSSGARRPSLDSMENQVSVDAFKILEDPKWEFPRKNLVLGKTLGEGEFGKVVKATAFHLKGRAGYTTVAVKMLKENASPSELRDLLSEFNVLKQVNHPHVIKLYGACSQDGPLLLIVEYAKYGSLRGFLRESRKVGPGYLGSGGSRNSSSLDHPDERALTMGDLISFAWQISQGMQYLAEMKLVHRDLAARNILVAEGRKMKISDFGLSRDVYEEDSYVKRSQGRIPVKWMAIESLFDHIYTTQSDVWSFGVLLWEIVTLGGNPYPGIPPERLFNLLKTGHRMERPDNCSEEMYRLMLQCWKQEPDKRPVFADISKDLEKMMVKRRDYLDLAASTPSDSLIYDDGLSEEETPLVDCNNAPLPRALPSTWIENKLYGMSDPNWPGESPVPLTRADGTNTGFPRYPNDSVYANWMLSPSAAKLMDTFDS
C-C chemokine receptor type 6, sequence (P51684 whole entry): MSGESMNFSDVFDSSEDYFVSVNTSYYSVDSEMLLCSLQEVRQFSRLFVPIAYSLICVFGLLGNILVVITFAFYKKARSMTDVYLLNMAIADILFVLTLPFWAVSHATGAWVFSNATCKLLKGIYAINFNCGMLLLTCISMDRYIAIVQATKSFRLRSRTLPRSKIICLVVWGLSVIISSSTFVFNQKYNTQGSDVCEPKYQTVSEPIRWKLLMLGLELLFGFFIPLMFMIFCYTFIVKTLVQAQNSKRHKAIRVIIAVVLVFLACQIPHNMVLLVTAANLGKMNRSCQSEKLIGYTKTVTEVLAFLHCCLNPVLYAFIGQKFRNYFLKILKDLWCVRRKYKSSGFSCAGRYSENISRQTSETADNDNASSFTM

## O=C(O)c1ccc(NC2=C(Cl)C(=O)c3ccccc3C2=O)cc1
[1]
  EC50: 2.74 µM (active)
Hexokinase HKDC1
  EC50: 5.62 µM (active)
Hexokinase-1
  EC50: 10.6 µM (active)

## CCOC(=O)c1c2c(n(Cc3ccccc3)c1C)C(=O)C(=O)c1ccccc1-2
[2]
  AC50: 2.3 µM (active)
[3]
  AC50: 6.28 µM (active)
[4]
  AC50: 10.9 µM (active)

## Cc1ccc2nccc(NC(=O)Nc3cccc(C(F)(F)F)n3)c2c1
[5]
  Ki: > 2 µM (inactive)
[6]
  Ki: > 1.58 µM (inactive)
[7]
  Ki: > 3.98 µM (inactive)
[8]
  Ki: 0.398 µM (active)

## Cc1c(/N=C2\C=CC(=O)c3ccccc32)c(=O)n(-c2ccccc2)n1C
Beta-galactosidase
  EC50: > 31.5 µM (inactive)
[9]
  IC50: > 66.6 µM (inactive)
Nonstructural protein 1
  IC50: 28.7 µM (active)

## COc1cc2c(cc1F)C(c1ccccc1Cl)=Nc1c(n[nH]c1C)N2 [RG-1530]
[10]
  Ki: > 2.51 µM (inactive)
[11]
  Ki: > 7.94 µM (inactive)
